Results: publication PMC3368601 (Chemistry & biology, 2011)

Biological target: AAK1 (adaptor-associated kinase 1) (Homo sapiens, UniProt Q2M2I8)
Experiment: ADP-Glo kinase assay with recombinant AAK1 and AP2M1 peptide
Format: biochemical

AAK1 (adaptor-associated kinase 1), sequence (Q2M2I8 46-315 limits assumed): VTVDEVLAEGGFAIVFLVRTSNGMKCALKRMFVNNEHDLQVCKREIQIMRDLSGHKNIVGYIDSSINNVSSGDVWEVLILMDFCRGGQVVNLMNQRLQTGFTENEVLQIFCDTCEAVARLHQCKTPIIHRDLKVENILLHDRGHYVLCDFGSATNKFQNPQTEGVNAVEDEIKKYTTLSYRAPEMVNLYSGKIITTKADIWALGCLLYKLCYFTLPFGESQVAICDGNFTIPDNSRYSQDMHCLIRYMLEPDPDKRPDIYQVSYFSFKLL

## COC(=O)C1(O)C[C@H]2O[C@]1(C)n1c3ccccc3c3c4c(c5c6ccccc6n2c5c31)C(=O)NC4 (stereo partly shown) [compound 1, K252a]
  IC50: < 10 nM
